Key:
[1] = Ratio of AUC in rat brain to AUC in rat plasma; assay type: ADME, tissue-based; settings: read-out: Ratio AUC
[2] = biological target: T1, Muscarinic acetylcholine receptor M4 (Rattus norvegicus, UniProt P08485); experiment: Agonist activity at rat muscarinic M4 expressed in CHO cells assessed as stimulation of calcium mobilization; assay type: functional, cell-based
T1 sequence (P08485 whole entry): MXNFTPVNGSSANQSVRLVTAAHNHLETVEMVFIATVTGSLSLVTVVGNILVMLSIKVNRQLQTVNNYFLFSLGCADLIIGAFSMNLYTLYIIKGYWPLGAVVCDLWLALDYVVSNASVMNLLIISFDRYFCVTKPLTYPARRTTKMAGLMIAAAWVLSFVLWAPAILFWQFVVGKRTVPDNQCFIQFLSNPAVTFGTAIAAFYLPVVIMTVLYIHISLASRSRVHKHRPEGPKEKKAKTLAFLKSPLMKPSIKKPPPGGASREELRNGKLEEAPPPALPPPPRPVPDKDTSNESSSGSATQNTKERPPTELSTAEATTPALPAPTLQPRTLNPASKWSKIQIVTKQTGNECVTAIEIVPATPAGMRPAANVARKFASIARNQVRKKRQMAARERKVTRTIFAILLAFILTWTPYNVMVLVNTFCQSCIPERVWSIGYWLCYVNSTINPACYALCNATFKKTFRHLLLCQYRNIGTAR

[3] = biological target: T2, Muscarinic acetylcholine receptor M5 (Homo sapiens) (UniProt P08912); experiment: Agonist activity at human muscarinic M5 expressed in CHO cells assessed as stimulation of calcium mobilization relative to acetyle choline; assay type: functional, cell-based; set-up: concentration or dose not given beside the values
T2 sequence (whole entry): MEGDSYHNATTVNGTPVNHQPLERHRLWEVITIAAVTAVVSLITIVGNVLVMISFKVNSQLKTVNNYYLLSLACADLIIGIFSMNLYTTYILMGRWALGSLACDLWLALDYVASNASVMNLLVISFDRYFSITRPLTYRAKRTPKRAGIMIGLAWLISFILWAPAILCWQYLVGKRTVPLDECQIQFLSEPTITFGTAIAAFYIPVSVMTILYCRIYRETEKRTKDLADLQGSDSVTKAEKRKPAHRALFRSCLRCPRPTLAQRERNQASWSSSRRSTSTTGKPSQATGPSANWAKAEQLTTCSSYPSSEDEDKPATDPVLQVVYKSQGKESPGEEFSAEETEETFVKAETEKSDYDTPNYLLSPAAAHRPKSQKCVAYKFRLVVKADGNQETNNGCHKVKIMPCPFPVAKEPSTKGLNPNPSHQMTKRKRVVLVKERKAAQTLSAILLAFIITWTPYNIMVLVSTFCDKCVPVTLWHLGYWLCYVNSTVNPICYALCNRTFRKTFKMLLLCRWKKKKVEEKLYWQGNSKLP

[4] = biological target: T3, Muscarinic acetylcholine receptor M5 (Homo sapiens, UniProt P08912); experiment: Agonist activity at human muscarinic M5 expressed in CHO cells assessed as stimulation of calcium mobilization; assay type: functional, cell-based
T3 sequence (P08912 whole entry): T2 sequence (whole entry)

[5] = biological target: T4, Muscarinic acetylcholine receptor M1 (Rattus norvegicus, UniProt P08482); experiment: Agonist activity at rat muscarinic M1 expressed in CHO cells assessed as stimulation of calcium mobilization; assay type: functional, cell-based
T4 sequence (P08482 whole entry): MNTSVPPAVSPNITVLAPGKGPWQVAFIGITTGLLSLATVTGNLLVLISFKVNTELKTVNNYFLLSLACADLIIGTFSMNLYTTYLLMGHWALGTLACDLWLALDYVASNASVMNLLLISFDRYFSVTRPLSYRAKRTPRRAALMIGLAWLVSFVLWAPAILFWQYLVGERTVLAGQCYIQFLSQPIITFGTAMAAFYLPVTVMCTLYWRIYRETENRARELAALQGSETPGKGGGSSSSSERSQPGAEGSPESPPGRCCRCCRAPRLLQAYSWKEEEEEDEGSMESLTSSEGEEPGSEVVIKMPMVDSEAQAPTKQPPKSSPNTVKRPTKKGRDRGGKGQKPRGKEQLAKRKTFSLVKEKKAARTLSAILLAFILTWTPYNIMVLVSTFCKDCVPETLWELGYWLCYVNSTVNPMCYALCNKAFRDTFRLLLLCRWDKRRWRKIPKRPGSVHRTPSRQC

[6] = biological target: T5, Muscarinic acetylcholine receptor M2 (Rattus norvegicus, UniProt P10980); experiment: Agonist activity at rat muscarinic M2 expressed in CHO cells assessed as stimulation of calcium mobilization; assay type: functional, cell-based
T5 sequence (P10980 whole entry): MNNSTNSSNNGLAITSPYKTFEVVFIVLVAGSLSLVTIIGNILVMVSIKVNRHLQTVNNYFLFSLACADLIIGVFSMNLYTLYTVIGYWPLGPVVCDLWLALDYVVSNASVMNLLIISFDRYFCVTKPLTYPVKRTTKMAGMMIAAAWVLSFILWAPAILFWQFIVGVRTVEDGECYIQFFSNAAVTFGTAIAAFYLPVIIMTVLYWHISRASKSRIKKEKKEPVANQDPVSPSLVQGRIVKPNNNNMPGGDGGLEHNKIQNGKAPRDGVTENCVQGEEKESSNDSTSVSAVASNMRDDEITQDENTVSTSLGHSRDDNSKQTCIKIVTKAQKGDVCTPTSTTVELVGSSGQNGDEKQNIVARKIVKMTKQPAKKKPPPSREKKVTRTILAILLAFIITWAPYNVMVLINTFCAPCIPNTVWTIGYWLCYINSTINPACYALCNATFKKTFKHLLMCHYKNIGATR

[7] = biological target: Muscarinic acetylcholine receptor M3 (Homo sapiens) (UniProt P20309); experiment: Agonist activity at human muscarinic M3 expressed in CHO cells assessed as stimulation of calcium mobilization at 30 uM; assay type: functional, cell-based
Sequence of Muscarinic acetylcholine receptor M3 (Homo sapiens) (P20309 whole entry, looked up): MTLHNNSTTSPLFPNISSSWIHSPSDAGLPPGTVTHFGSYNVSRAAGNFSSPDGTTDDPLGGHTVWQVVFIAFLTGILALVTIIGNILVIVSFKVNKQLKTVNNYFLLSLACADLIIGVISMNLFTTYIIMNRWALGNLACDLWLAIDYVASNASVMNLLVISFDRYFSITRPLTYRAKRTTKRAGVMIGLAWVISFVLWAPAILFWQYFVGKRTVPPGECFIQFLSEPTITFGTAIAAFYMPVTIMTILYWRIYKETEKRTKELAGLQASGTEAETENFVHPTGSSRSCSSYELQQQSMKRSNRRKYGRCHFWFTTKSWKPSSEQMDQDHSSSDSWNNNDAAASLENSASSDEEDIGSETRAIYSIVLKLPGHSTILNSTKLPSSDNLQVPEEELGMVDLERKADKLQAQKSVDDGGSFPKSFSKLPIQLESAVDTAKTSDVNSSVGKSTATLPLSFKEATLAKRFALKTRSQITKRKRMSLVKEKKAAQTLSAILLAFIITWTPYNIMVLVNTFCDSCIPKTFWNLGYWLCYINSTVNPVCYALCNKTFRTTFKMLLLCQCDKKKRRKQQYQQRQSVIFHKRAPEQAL

[8] = biological target: T6, Muscarinic acetylcholine receptor M1 (Rattus norvegicus) (UniProt P08482); experiment: Agonist activity at rat muscarinic M1 expressed in CHO cells assessed as stimulation of calcium mobilization at 30 uM; assay type: functional, cell-based
T6 sequence (whole entry): T4 sequence (P08482 whole entry)

| SMILES | Kp [1] | EC50 [2] | Activity [3] | EC50 [4] | EC50 [5] | EC50 [6] | Activity [7] | Activity [8] |
| --- | --- | --- | --- | --- | --- | --- | --- | --- |
| O=C1C(=O)N(Cc2ccc(C(F)(F)F)cc2)c2c(Cl)cccc21 | 0.25 | > 10 µM | – | – | – | – | – | – |
| COc1ccccc1-c1ccc(CN2C(=O)C(=O)c3cc(OC(F)(F)F)ccc32)cc1 | 0.25 | – | 70% | 3.9 µM | > 30 µM | – | – | – |
| COc1ccc(CN2C(=O)C(=O)c3ccc(OC(F)(F)F)cc32)cc1 | – | – | – | 5.7 µM | – | – | – | – |
| O=C1C(=O)N(Cc2ccc(-c3ccc(Cl)nc3)cc2)c2ccc(OC(F)(F)F)cc21 | 0.25 | – | 85% | 4.8 µM | > 30 µM | – | – | – |
| O=C1C(=O)N(Cc2ccc(-c3ccc(F)nc3)cc2)c2ccc(OC(F)(F)F)cc21 | 0.25 | – | 80% | 3.6 µM | > 30 µM | – | – | – |
| O=C1C(=O)N(Cc2ccc(-c3ccccc3)cc2)c2ccc(OC(F)(F)F)cc21 | 0.25 | – | 85% | 2.7 µM | > 30 µM | – | – | – |
| O=C1C(=O)N(Cc2ccc(-c3ccsc3)cc2)c2ccc(OC(F)(F)F)cc21 | 0.25 | – | 85% | 2.8 µM | > 30 µM | – | – | – |
| O=C1C(=O)N(Cc2ccc(-c3ccccc3)cc2)c2cc(OC(F)(F)F)ccc21 | – | – | – | 2.7 µM | – | – | – | – |
| O=C1C(=O)N(Cc2ccc(Oc3ccccc3)cc2)c2ccc(OC(F)(F)F)cc21 | – | – | 75% | 1.9 µM | – | – | – | – |
| COc1ccc(CN2C(=O)C(=O)c3cc(OC(F)(F)F)ccc32)cc1 | 0.25 | > 30 µM | – | 1.1 µM | – | > 30 µM | 30% | 30% |
| O=C1C(=O)N(Cc2ccc(Br)cc2)c2ccccc21 | 0.25 | > 30 µM | – | – | – | > 30 µM | – | – |
| Cn1cc(-c2ccc(CN3C(=O)C(=O)c4cc(OC(F)(F)F)ccc43)cc2)cn1 | 0.25 | – | 85% | 3.3 µM | > 30 µM | – | – | – |
